Measured values published in patent US6242476A, “Leukotriene A4 hydrolase inhibitors” (Santen Pharmaceutical Co., Ltd., priority 1997, dated 2001).

Target: T1, LTA4 hydrolase (Cavia porcellus, UniProt P19602)
T1 construct: prepared by extracting from guinea pig lung without purification; from tissue; host or cells: lung of Hartley guinea pig
T1 sequence (P19602 1-611): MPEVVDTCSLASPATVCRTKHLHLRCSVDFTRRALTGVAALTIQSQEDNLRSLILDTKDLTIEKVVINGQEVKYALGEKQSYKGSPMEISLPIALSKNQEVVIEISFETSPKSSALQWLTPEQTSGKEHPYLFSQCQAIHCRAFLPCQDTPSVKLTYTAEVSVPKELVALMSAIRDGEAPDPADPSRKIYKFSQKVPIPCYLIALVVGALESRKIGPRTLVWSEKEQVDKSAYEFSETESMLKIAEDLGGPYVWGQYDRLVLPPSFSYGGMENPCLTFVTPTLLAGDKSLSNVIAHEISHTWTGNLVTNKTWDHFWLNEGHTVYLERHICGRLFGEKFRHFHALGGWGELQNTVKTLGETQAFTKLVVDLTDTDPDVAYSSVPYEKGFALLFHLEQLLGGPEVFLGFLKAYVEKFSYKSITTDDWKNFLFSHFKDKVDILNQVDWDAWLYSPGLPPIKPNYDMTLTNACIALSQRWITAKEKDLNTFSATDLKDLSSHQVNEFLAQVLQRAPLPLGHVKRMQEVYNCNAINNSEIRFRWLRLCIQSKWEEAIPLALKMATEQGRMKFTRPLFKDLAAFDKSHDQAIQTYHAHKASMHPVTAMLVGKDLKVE
Experiment: Inhibition of LTA4 hydrolase: LTB4 produced from LTA4 by enzyme preparation from guinea pig lung (HPLC)
Assay type: biochemical
Conditions: guinea pig lung enzyme preparation 0.4-0.6 mg protein; HEPES 50 mM, pH 7.8; LTA4 63 μM; DTT 3 mM; 37° C., one minute; read-out: IC50 (concentration of the compounds required to inhibit LTA4 hydrolase activity by 50%)
Protocol: Izumi et al. had reported a method of measuring LTA4 hydrolase activity by measuring an amount of LTB4 produced by an enzymatic reaction using LTA4 as a substrate (Biochem. Biophys. Res. Commun., 135, 139-145 (1986)). Effects of the present compounds on LTA4 hydrolase were examined according to the method described in the literature.
An enzyme preparation used in this pharmacological test was prepared by extracting from guinea pig lung without purification according to the method of Izumi et al. (Biochem. Biophys. Res. Commun., 135, 139-145 (1986)) and the method of Evans et al. (Biochem. Biophys. Acta, 840, 43-50 (1985)). The experimental method is as follows:
Lungs were excised from a Hartley guinea pig (body weight: 330 g). The lungs were homogenized in phosphoric acid buffer (50 mM, pH 7.4, containing 1 mM ethylenediaminetetraacetic acid (EDTA) and 1 mM dithiothreitol (DTT) having weight three times that of the lungs under ice-cooling. The homogenate was centrifuged at low speed (800×g) for 20 minutes, centrifuged at high speed (10,000×g) for 20 minutes and ultracentrifuged (100,000×g) for 60 minutes to give a supernatant. The supernatant was brought to 40% saturation by adding a saturated aqueous ammonium sulfate solution (pH 7.0-7.2, containing 1 mM DTT) dropwise under ice-cooling and centrifuged at high speed (10,000×g) for 20 minutes. The resulting supernatant was brought to 70% saturation by adding a saturated aqueous ammonium sulfate solution (pH 7.0-7.2, containing 1 mM DTT) dropwise and centrifuged at high speed (10,000×g) for 20 minutes. The obtained pellet was dissolved in 2 ml of Tris-acetic acid buffer (20 mM, pH 7.8, containing 1 mM DTT) and dialyzed in 2 liters of the solution to give the enzyme preparation.
LTA4 used, which is the substrate, was prepared by hydrolyzing LTA4 methyl ester and dissolved in ethanol.
In order to examine effects of the test compounds on the enzyme preparation, reactions were performed under the following condition using mixed solutions consisting of the composition shown in Table 1. […]
HEPES buffer 50 mM, pH 7.8
Enzyme preparation 0.4-0.6 mg protein
DTT aqueous solution 3 mM
Test compounds 10^-8 -10^-3 M
The above-mentioned solution (50 μl) was incubated at 37° C. for one minute. To the reaction mixture was added 100 μl of a mixed liquid of acetonitrile-ethanol-acetic acid (150:50:3, volume ratio) under ice-cooling. The mixture was allowed to stand at -20° C. for 30 minutes and centrifuged at high speed (10,000×g) for five minutes to give a supernatant. An amount of LTB4 produced in the supernatant was measured by high-speed liquid chromatography.
The degree of the inhibitory effect of each test compound on LTA4 hydrolase is expressed by the inhibition rate calculated by the following equation. [formula]
A: amount of LTB4 formed in the absence of the test compound
B: amount of LTB4 formed in the presence of the test compound
The results are represented in concentration of the compounds required to inhibit LTA4 hydrolase activity by 50%, i.e., IC50.

SMILES	IC50 [nM]
Cc1ccccc1CS[C@H]1C[C@@H](C(=O)O)N(C(=O)[C@H](C)CS)C1 [Compound a, 1-[(2S)-3-mercapto-2-methylpropionyl]-(4S)-4-(2-methylbenzylthio)-L-proline]	840
CC(C)c1ccc(CCS[C@H]2C[C@@H](C(=O)O)N(C(=O)[C@H](C)CS)C2)cc1 [Compound c, (4S)-4-(4-isopropylphenyethylthio)-1-[(2S)-3-mercapto-2-methylpropionyl]-L-proline]	790
CC(C)c1ccc(CS[C@@H]2C[C@@H](C(=O)O)N(C(=O)[C@H](C)CS)C2)cc1 [Compound d, (4R)-4-(4-isopropylbenzylthio)-1-[(2S)-3-mercapto-2-methylpropionyl]-L-proline]	290
CCCCc1ccc(CS[C@H]2C[C@@H](C(=O)O)N(C(=O)[C@H](C)CS)C2)cc1 [Compound f, (4S)-4-(4-butylbenzylthio)-1-[(2S)-3-mercapto-2-methylpropionyl]-L-proline]	31
C[C@H](CS)C(=O)N1C[C@@H](SCc2ccc(C3CCCCC3)cc2)C[C@H]1C(=O)O [Compound h, (4S)-4-(4-cyclohexylbenzylthio)-1-[(2S)-3-mercapto-2-methylpropionyl]-L-proline]	34

Next, values leading:

IC50 [nM]	SMILES
52	CC(C)c1ccc(CS[C@H]2C[C@@H](C(=O)O)N(C(=O)[C@H](C)CS)C2)cc1 [Compound b, (4S)-4-(4-isopropylbenzylthio)-1-[(2S)-3-mercapto-2-methylpropionyl]-L-proline]
800	CC(C)c1ccc(CO[C@@H]2C[C@@H](C(=O)O)N(C(=O)[C@H](C)CS)C2)cc1 [Compound e, (4R)-4-(4-isopropylbenzyloxy)-1-[(2S)-3-mercapto-2-methylpropionyl]-L-proline]
120	CSc1ccc(CS[C@H]2C[C@@H](C(=O)O)N(C(=O)[C@H](C)CS)C2)cc1 [Compound g, 1-[(2S)-3-mercapto-2-methylpropionyl]-(4S)-4-[4-(methylthio)benzylthio]-L-proline]
